# “Also recorded” adds a separate entry of the source.
# How the values were obtained:
# [1] = tested on: adenosine-modulated genes and proteins; experiment: Adenosine-induced genes and proteins in tumor biopsies from treated patients; parameters: species or system human; conditions: in vitro and in vivo in tumor biopsies from treated patients
# Text: Expression of a subset of genes that are modulated by adenosine levels correlates with tumor regression in the ongoing Ph 1/1b trial with CPI-444 treatment in RCC. […] A2AR agonists induce a specific gene signature dominated by immunosuppressive mediators of MDSC and monocyte/macrophage biology. […] These genes and proteins may identify patients with high levels of adenosine and be used as biomarkers for patient selection to select patients most likely to respond to therapy with agents that antagonize adenosine production or signaling.
# A2AR = experiment: In vitro A2AR stimulation gene signature and its inhibition by CPI-444; assay type: cell-based, human; conditions: transcript and protein level
# Experimental: RNA purified from normal, healthy human peripheral blood mononuclear cells (PBMCs) treated with 5′-N-ethylcarboxamidoadenosine (NECA) and activated with anti-CD3/CD28 antibody were analyzed by NanoString hybridization-based quantification (NanoString Technologies, Inc.). […] Each dot represents the expression level of a specific gene. Dot shade represents the concentration of NECA used and/or different PBMC donors. […] Increases in monocyte/macrophage inflammatory mediators such as IL-1b and CCL2,3,7,8, 20 were also observed, as were increases in SERPINB2, S100A8, PTGS2, THBS1. Expression of CXCL10 and GZMB were decreased, consistent with a suppressed IFNg response. […] A2AR agonists induce a specific gene signature (increase in a certain subset of genes and/or decrease in a second subset of genes) dominated by immunosuppressive mediators of MDSC and monocyte/macrophage biology. Inhibition of these genes by CPI-444 are observed. These gene signatures may be used as biomarkers for patient selection.
# advanced cancers = experiment: Ongoing phase 1/1b trial of CPI-444 monotherapy in patients with advanced cancers; assay type: in vivo, human
# Text: “Adenosine receptor antagonist” refers to a molecule that inhibits activity of adenosine receptors (e.g. A2A or A2B receptors), typically through direct action. Adenosine receptors antagonists can be small or large molecule antagonists. In embodiments, CPI-444 is an example A2A receptor antagonist. […] CPI-444 is described, for example, in PCT Patent Publication No. WO 2017/112917; each of which is incorporated herein by reference in its entirety.
# IL6 and IL8 = experiment: Plasma IL6 and IL8 protein levels in RCC patients after CPI-444 treatment; assay type: in vivo, human; conditions: RCC patients with reduction in tumor size (best response); after treatment (4 weeks)
# renal tumors (RCC) = experiment: Change in tumor size in renal cancer patients treated with CPI-444 (Ph 1/1b trial); assay type: in vivo, human
# Experimental: Methods: Tumor biopsies obtained at trial screening from patients with RCC (n=30) were analyzed for gene expression profiles with the Nanostring PanCancer Immune Panel that included 770 markers of immune activity and inflammation. The gene expression correlation (Spearman) matrix was hierarchically clustered (Ward's method) to identify modules of genes that were co-expressed across tumors. Gene expression was normalized to housekeeper genes included in the PanCancer Immune Panel. Gene cluster expression intensity was compared between patients with evaluable best change in tumor size ≤0 (n=8) vs >0 (n=15). The composite gene expression score was calculated as the average of the Log2 of expression values (normalized Nanostring counts) for seven genes (CXCL1, CXCL2, CXCL3, CXCL5, IL1B, IL8, SERPINB2) shown to be induced in vitro in normal peripheral blood mononuclear cells by adenosine. Protein expression was determined from blood (plasma) samples from baseline (untreated) renal cell carcinoma (RCC) patients using MesoScale assay.
# Renal cancer patients were treated with CPI-444, and change in tumor size was measured.
# PBMCs = experiment: CXCL5 protein ELISA in culture supernatants of PBMCs treated with NECA +/- CPI-444; assay type: cell-based; conditions: PBMCs from two human donors; NECA then CPI-444 then anti-CD3/CD28; two days after activation
# Experimental: Expression of CXCL5 was determined by ELISA 2 days after activation.
# FIGS. 2B and 2C show the response of PBMCs from two different donors to NECA+/−CPI-444 treatment. DMSO was used as vehicle control. […] This control helps establish that the induction of CXCL5 is specific to signaling through adenosine receptors.
# NECA activation of CXCL5 protein expression was evaluated. PBMCs were harvested from two different human donors. […] CPI-444 (Corvus Pharmaceuticals) is an antagonist of the adenosine A2A receptor. CXCL5 protein in the culture supernatants was evaluated by ELISA two days after activation. CXCL5 expression is activated by NECA. […] This establishes that the induction of CXCL5 is specific to signaling through adenosine receptors.
compound,measurement,setting,value
"Cc1ccc(-c2nc(N)nc3c2nnn3Cc2cccc(CO[C@H]3CCOC3)n2)o1 [CPI-444, (S)-7-(5-methylfuran-2-yl)-3-((6-(((tetrahydrofuran-3-yl)oxy)methyl)pyridin-2-yl)methyl)-3H-[1,2,3]triazolo[4,5-d]pyrimidin-5-amine]","adenosine agonist-induced genes and proteins, effect of CPI-444",[1],Inhibition of these genes and proteins
same,"A2AR stimulation-induced gene expression changes, effect of CPI-444",A2AR,inhibited these changes
same,anti-tumor activity as a monotherapy,advanced cancers,demonstrated anti-tumor activity
same,IL6 and IL8 levels in blood plasma after treatment,IL6 and IL8,reduced; also recorded: decreased
same,"response to CPI-444 monotherapy, patients with high CD68 or high CD163 gene levels in the tumors","renal tumors (RCC); RCC patients, vs low levels of CD68 or CD163",more likely to respond
same,"tumor regression with CPI-444, patients with high expression of adenosine-modulated gene subset","renal tumors (RCC); ongoing Ph 1/1b trial, RCC, vs patients with low expression",more likely to have tumor regression
same,reduction in tumor size (best overall change) after CPI-444 treatment,"renal tumors (RCC); patients with RCC, two subjects",greater than 30%
same,"change in tumor size after CPI-444 treatment, tumors with low composite gene expression score",renal tumors (RCC); renal cancer patients,tumor regression was not observed
same,"response to CPI-444, patients with high CCL20 and low CX3CL1 plasma protein levels",renal tumors (RCC); renal cancer patients,more likely to respond
same,"change in tumor size after CPI-444 treatment, tumors with high composite gene expression score","renal tumors (RCC); renal cancer patients, four patients",reduction in tumor size
same,"NECA-induced increase in CXCL5 protein (ELISA), effect of added CPI-444",PBMCs,blocked
